Reference: patent publication US20240109887A1 (Viva Star Biosciences (Suzhou) Co., Ltd., priority 2021, published 2024)
pIC50: −log10 of the molar value.

Experiments:
KRAS-WT/SOS1 = target: T1, KRAS-WT/SOS1 (Homo sapiens, UniProt Q07889); experiment: biochemical
T1 sequence (Q07889 1-1333): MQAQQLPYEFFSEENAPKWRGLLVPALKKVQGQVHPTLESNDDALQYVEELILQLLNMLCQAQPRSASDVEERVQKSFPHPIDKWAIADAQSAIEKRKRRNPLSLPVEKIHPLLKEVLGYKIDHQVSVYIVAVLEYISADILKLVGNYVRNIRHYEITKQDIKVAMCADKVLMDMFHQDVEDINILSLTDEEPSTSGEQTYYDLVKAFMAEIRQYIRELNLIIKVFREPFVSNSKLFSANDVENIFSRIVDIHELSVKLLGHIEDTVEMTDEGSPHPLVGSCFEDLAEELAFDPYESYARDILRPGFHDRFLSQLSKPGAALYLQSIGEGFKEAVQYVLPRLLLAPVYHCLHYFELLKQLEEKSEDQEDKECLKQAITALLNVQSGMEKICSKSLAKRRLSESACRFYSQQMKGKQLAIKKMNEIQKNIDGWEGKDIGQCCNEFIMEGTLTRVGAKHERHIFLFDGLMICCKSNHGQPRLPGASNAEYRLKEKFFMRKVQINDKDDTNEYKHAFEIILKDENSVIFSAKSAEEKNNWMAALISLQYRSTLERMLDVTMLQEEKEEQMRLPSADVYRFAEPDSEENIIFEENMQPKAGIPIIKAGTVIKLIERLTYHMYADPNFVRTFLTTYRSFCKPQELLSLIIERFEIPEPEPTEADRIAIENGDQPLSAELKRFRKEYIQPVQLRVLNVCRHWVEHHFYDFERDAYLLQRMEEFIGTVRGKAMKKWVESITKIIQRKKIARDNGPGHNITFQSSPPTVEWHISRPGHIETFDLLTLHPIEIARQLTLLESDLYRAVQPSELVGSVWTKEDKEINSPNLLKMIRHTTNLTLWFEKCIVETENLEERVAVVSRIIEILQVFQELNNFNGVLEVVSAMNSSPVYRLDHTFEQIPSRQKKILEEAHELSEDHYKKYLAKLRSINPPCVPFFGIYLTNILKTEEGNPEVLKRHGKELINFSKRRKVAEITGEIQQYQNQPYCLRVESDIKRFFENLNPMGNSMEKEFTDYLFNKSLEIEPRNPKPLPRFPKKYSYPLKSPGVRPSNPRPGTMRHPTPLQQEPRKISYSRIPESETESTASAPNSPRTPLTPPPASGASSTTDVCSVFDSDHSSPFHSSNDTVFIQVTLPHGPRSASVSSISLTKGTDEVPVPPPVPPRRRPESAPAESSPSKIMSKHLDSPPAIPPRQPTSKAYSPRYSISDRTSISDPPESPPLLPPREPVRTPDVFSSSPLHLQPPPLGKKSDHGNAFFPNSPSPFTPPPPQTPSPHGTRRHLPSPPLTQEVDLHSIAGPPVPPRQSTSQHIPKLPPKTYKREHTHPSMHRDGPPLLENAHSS

KRAS G12D/SOS1 = target: T2, KRAS G12D/SOS1 (Homo sapiens, UniProt Q07889); experiment: biochemical
T2 sequence (Q07889 1-1333): T1 sequence (Q07889 1-1333)

| Structure (SMILES) | pIC50 (KRAS-WT/SOS1) | pIC50 (KRAS G12D/SOS1) |
| --- | --- | --- |
| C[C@@H](NC(=O)c1cn(C2(C)CC2)c(=O)c2c[nH]nc12)c1cccc2c1CCC2(F)F [Example 4, (R)-N-(1-(1,1-difluoro-2,3-dihydro-1H-inden-4-yl)ethyl)-5-(1-methylcyclopropyl)-4-oxo-4,5-dihydro-2H-pyrazolo[4,3-c]pyridine-7-carboxamide] | > 7.00 | > 7.00 |
| C[C@@H](NC(=O)c1cn(C2(C)CC2)c(=O)c2c[nH]nc12)c1cccc(C(F)(F)CO)c1 [Example 5, (R)-N-(1-(3-(1,1-difluoro-2-hydroxyethyl)phenyl)ethyl)-5-(1-methylcyclopropyl)-4-oxo-4,5-dihydro-2H-pyrazolo[4,3-c]pyridine-7-carboxamide] | > 7.00 | > 7.00 |
| Cc1c([C@@H](C)NC(=O)c2cn(C3(C)CC3)c(=O)c3cn[nH]c23)cccc1C(F)(F)F [Example 6, (R)-N-(1-(2-methyl-3-(trifluoromethyl)phenyl)ethyl)-5-(1-methylcyclopropyl)-4-oxo-4,5-dihydro-1H-pyrazolo[4,3-c]pyridine-7-carboxamide] | > 7.00 | 6.30 to 7.00 |
| C[C@@H](NC(=O)c1cn(C2(C)CC2)c(=O)c2cn[nH]c12)c1cccc(C(C)(F)F)c1F [Example 7, (R)-N-(1-(3-(1,1-difluoroethyl)-2-fluorophenyl)ethyl)-5-(1-methylcyclopropyl)-4-oxo-4,5-dihydro-1H-pyrazolo[4,3-c]pyridine-7-carboxamide] | > 7.00 | 6.30 to 7.00 |
| CNCc1ccccc1-c1ccc([C@@H](C)NC(=O)c2cn(C3(C)CC3)c(=O)c3cn[nH]c23)s1 [Example 9, (R)-N-(1-(5-(2-((methylamino)methyl)phenyl)thiophen-2-yl)ethyl)-5-(1-methylcyclopropyl)-4-oxo-4,5-dihydro-1H-pyrazolo[4,3-c]pyridine-7-carboxamide] | > 7.00 | > 7.00 |
| CC(=O)N1CCC(n2cc(C(=O)N[C@H](C)c3cccc4c3CCC4(F)F)c3n[nH]cc3c2=O)CC1 [Example 10, (R)-5-(1-acetylpiperidin-4-yl)-N-(1-(1,1-difluoro-2,3-dihydro-1H-inden-4-yl)ethyl)-4-oxo-4,5-dihydro-2H-pyrazolo[4,3-c]pyridine-7-carboxamide] | > 7.00 | > 7.00 |
| C[C@@H](NC(=O)c1cn(C2CC(F)(F)C2)c(=O)c2cn[nH]c12)c1cccc2c1CCC2(F)F [Example 13, (R)—N-(1-(1,1-difluoro-2,3-dihydro-1H-inden-4-yl)ethyl)-5-(3,3-difluorocyclobutyl)-4-oxo-4,5-dihydro-1H-pyrazolo[4,3-c]pyridine-7-carboxamide] | > 7.00 | > 7.00 |
| C[C@@H](NC(=O)c1cn(C2CC(F)(F)C2)c(=O)c2cn[nH]c12)c1cccc(C(F)(F)F)c1 [Example 14, (R)-5-(3,3-difluorocyclobutyl)-4-oxo-N-(1-(3-(trifluoromethyl)phenyl)ethyl)-4,5-dihydro-1H-pyrazolo[4,3-c]pyridine-7-carboxamide] | 6.30 to 7.00 | 6.30 to 7.00 |
| CNCc1ccccc1-c1csc([C@@H](C)NC(=O)c2cn(C3CC(F)(F)C3)c(=O)c3cn[nH]c23)c1 [Example 15, 5-(3,3-difluorocyclobutyl)-N-[(1R)-1-(4-{2-[(methylamino)methyl]phenyl}thiophen-2-yl)ethyl]-4-oxo-1H,4H,5H-pyrazolo[4,3-c]pyridine-7-carboxamide] | > 7.00 | > 7.00 |
| COc1c(N2CCOCC2)cc(C(=O)N[C@H](C)c2cccc3c2CCC3(F)F)c2n[nH]cc12 [Example 18, N-[(1R)-1-(1,1-difluoro-2,3-dihydro-1H-inden-4-yl)ethyl]-4-methoxy-5-(morpholin-4-yl)-2H-indazole-7-carboxamide] | > 7.00 | > 7.00 |
| COc1c(CN(C)C)cc(C(=O)N[C@H](C)c2cccc3c2CCC3(F)F)c2n[nH]cc12 [Example 19, N-[(1R)-1-(1,1-difluoro-2,3-dihydro-1H-inden-4-yl)ethyl]-5-[(dimethylamino)methyl]-4-methoxy-2H-indazole-7-carboxamide] | 6.30 to 7.00 | 6.30 to 7.00 |
| COc1c(CN(C)C)cc(C(=O)N[C@H](C)c2cccc(C(F)(F)CO)c2)c2n[nH]cc12 [Example 20, N-[(1R)-1-[3-(1,1-difluoro-2-hydroxyethyl)phenyl]ethyl]-5-[(dimethylamino)methyl]-4-methoxy-2H-indazole-7-carboxamide] | 6.30 to 7.00 | 6.30 to 7.00 |
| Cc1c[nH]c2c(C(=O)N[C@H](C)c3cccc4c3CCC4(F)F)cn(C3(C)CC3)c(=O)c12 [Example 21, (R)—N-(1-(1,1-difluoro-2,3-dihydro-1H-inden-4-yl)ethyl)-3-methyl-5-(1-methylcyclopropyl)-4-oxo-4,5-dihydro-1H-pyrrolo[3,2-c]pyridine-7-carboxamide] | > 7.00 | 6.30 to 7.00 |
| COc1c(-c2cnc[nH]2)cc(C(=O)N[C@H](C)c2cccc3c2CCC3(F)F)c2n[nH]cc12 [Example 22, N-[(1R)-1-(1,1-difluoro-2,3-dihydro-1H-inden-4-yl)ethyl]-5-(1H-imidazol-5-yl)-4-methoxy-2H-indazole-7-carboxamide] | 6.30 to 7.00 | 6.30 to 7.00 |
| COc1c(-c2cnc[nH]2)cc(C(=O)N[C@H](C)c2cccc(C(F)(F)CO)c2)c2n[nH]cc12 [Example 23, N-[(1R)-1-[3-(1,1-difluoro-2-hydroxyethyl)phenyl]ethyl]-5-(1H-imidazol-5-yl)-4-methoxy-2H-indazole-7-carboxamide] | 6.30 to 7.00 | 6.30 to 7.00 |
| COc1c(C(C)N)cc(C(=O)N[C@H](C)c2cccc3c2CCC3(F)F)c2n[nH]cc12 (stereo partly drawn) [Example 24, 5-(1-aminoethyl)-N—((R)-1-(1,1-difluoro-2,3-dihydro-1H-inden-4-yl)ethyl)-4-methoxy-2H-indazole-7-carboxamide] | 6.30 to 7.00 | 6.30 to 7.00 |
| COc1c(O[C@H]2CCOC2)cc(C(=O)N[C@H](C)c2cccc(C(F)(F)F)c2)c2n[nH]cc12 [Example 27, 4-methoxy-5-(((S)-tetrahydrofuran-3-yl)oxy)-N—((R)-1-(3-(trifluoromethyl)phenyl)ethyl)-2H-indazole-7-carboxamide] | 6.30 to 7.00 | 6.30 to 7.00 |
| COc1c(O[C@H]2CCOC2)cc(C(=O)N[C@H](C)c2cc(N)cc(C(F)(F)F)c2)c2n[nH]cc12 [Example 28, N-((R)-1-(3-amino-5-(trifluoromethyl)phenyl)ethyl)-4-methoxy-5-(((S)-tetrahydrofuran-3-yl)oxy)-2H-indazole-7-carboxamide] | 6.30 to 7.00 | 6.30 to 7.00 |
| COc1c(O[C@H]2CCOC2)cc(C(=O)N[C@H](C)c2cccc3c2CCC3(F)F)c2n[nH]cc12 [Example 29, N-((R)-1-(1,1-difluoro-2,3-dihydro-1H-inden-4-yl)ethyl)-4-methoxy-5-(((S)-tetrahydrofuran-3-yl)oxy)-2H-indazole-7-carboxamide] | > 7.00 | 6.30 to 7.00 |
| COc1c(O[C@H]2CCOC2)cc(C(=O)N[C@H](C)c2cccc(C(F)(F)CO)c2)c2n[nH]cc12 [Example 30, N-((R)-1-(3-(1,1-difluoro-2-hydroxyethyl)phenyl)ethyl)-4-methoxy-5-(((S)-tetrahydrofuran-3-yl)oxy)-2H-indazole-7-carboxamide] | 6.30 to 7.00 | 6.30 to 7.00 |
| COc1c(N2CCN(C)CC2)cc(C(=O)N[C@H](C)c2cccc(C(F)(F)CO)c2)c2[nH]ncc12 [Example 32, N-[(1R)-1-[3-(1,1-difluoro-2-hydroxyethyl)phenyl]ethyl]-4-methoxy-5-(4-methylpiperazin-1-yl)-1H-indazole-7-carboxamide] | > 7.00 | > 7.00 |
| COc1c(N2CCNCC2)cc(C(=O)N[C@H](C)c2cccc(C(F)(F)CO)c2)c2[nH]ncc12 [Example 33] | > 7.00 | > 7.00 |
| COc1c(C2CCN(C)CC2)cc(C(=O)N[C@H](C)c2cccc(C(F)(F)CO)c2)c2[nH]ncc12 [Example 34, N-[(1R)-1-[3-(1,1-difluoro-2-hydroxyethyl)phenyl]ethyl]-4-methoxy-5-(1-methylpiperidin-4-yl)-1H-indazole-7-carboxamide] | > 7.00 | > 7.00 |
